# Measurements from the supplement of paper PMC10307832.
# Experiments:
# IU1-47 = compound: CC1=CC(=C(N1C2=CC=C(C=C2)Cl)C)C(=O)CN3CCCCC3 [IU1-47]; assay: relative viability (nuclei count vs DMSO), 5 days (fraction); higher = more cells survive
# Outline: (§1)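 Cells of lung cancer lines were placed in 1536-well plates and kept overnight at 37 °C. Pinning then delivered five library-drug doses (not always all listed), spaced by √10, onto plates anchored with vehicle, and the cells were left 5 days without changing medium. One step fixed, permeabilised and stained them with Hoechst, and MetaXpress counted nuclei in 4× images. Viability, as a median over plates, is treated-well nuclei divided by vehicle-well nuclei, with acceptance only at control CV below 25% and at least one doubling.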
# FG-4592 = compound: Cc1nc(C(=O)NCC(=O)O)c(O)c2ccc(Oc3ccccc3)cc12 [FG-4592]; assay: as above
# Outline: as §1
Cell Line,relative viability (IU1-47; 0.08 µM),relative viability (IU1-47; 0.253 µM),relative viability (IU1-47; 0.8 µM),relative viability (IU1-47; 2.53 µM),relative viability (IU1-47; 8 µM),relative viability (FG-4592; 0.08 µM),relative viability (FG-4592; 0.253 µM),relative viability (FG-4592; 0.8 µM),relative viability (FG-4592; 2.53 µM),relative viability (FG-4592; 8 µM)
LK-2,1.23,1.05,0.988,0.905,0.934,0.78,0.918,0.685,0.883,0.778
LOU-NH91,1.09,1.04,0.964,1.04,0.952,0.942,0.869,0.905,0.92,0.96
LU99A,0.977,0.898,1.1,0.953,0.972,0.91,0.862,0.748,0.972,0.961
LXF-289,1.08,1.06,1.08,0.982,0.958,1.04,0.941,1.06,0.981,1.09
NCI-H23,0.93,0.986,1.15,0.908,0.857,0.965,0.833,0.71,0.782,0.829
NCI-H322M,0.972,1.02,0.919,0.922,0.925,0.812,0.907,0.844,0.897,0.89
NCI-H358,1,0.912,0.981,0.89,0.848,1.02,0.835,1.16,0.896,0.989
NCI-H441,1.24,1.16,1.07,1.01,1.07,1.05,0.928,0.98,0.756,0.787
NCI-H460,1.04,0.987,1.08,0.955,1.01,0.965,0.947,1.03,1,1.02
NCI-H520,0.989,0.973,0.981,0.879,0.849,0.873,0.897,0.827,0.943,0.761
NCI-H522,0.959,0.975,1.01,0.82,0.874,0.958,0.947,0.761,0.992,0.823
NCI-H596,1.19,0.775,1.14,1.03,0.801,0.794,0.955,,1.03,0.651
NCI-H647,1.07,1.05,0.843,0.985,0.923,0.916,0.94,0.837,0.933,0.727
NCI-H650,1.15,1.08,0.978,0.836,0.876,0.836,0.964,0.737,0.912,0.891
NCI-H661,1.09,1.07,1.12,0.929,1.07,0.926,0.942,1.11,0.903,0.972
NCI-H727,1.03,0.938,1.12,0.755,0.867,0.88,0.921,0.894,0.944,0.992
NCI-H838,1.01,1.05,1.04,1.01,0.955,0.962,0.937,0.853,0.946,0.923
NCI-H1299,0.995,1.05,1.06,1,1.02,0.974,0.98,0.982,0.99,1.02
NCI-H1355,1.01,1.04,1.03,,0.881,0.965,0.922,,0.926,0.912
NCI-H1395,0.879,0.953,0.884,0.534,0.791,0.86,0.795,0.672,0.975,0.761
NCI-H1437,1.02,0.94,1.08,0.922,0.936,1,0.929,0.991,0.972,0.822
NCI-H1563,0.985,0.983,1.12,0.944,1.05,0.946,0.958,0.922,0.988,0.888
NCI-H1623,1.04,0.981,0.974,0.812,0.882,0.964,0.824,0.858,1.05,0.769
NCI-H1648,0.947,1.17,1.17,0.557,0.552,0.798,0.926,0.907,0.83,1.28
NCI-H1650,0.9,1.04,0.951,0.831,0.845,0.835,0.858,0.986,0.935,0.979
NCI-H1651,0.978,0.995,1.01,0.918,0.983,0.973,0.941,0.921,0.961,0.915
